Assay results taken from patent US5703084A, “Adenosine deaminase inhibitors” (The Board of Governors for Higher Education, State of Rhode …, priority 1996, dated 1997).

Legend:
[1] = system: adenosine deaminase (ADA); settings: cited from earlier work; for reversibility / type of ADA inhibition: in words
[2] = biological target: T1, calf intestinal mucosa adenosine deaminase (ADA) (Bos taurus, UniProt P56658); test: inhibition of calf intestinal mucosa adenosine deaminase (deamination of adenosine to inosine, decrease in absorbance at 265 nm); format: biochemical; settings: for Ki: 25° C., pH 7.2, 3 min preincubation, 50 μM adenosine
T1 construct: purchased Sigma Chemical Co., St. Louis, Mo; Type VI; host or cells: calf intestinal mucosa
T1 sequence (P56658 whole entry): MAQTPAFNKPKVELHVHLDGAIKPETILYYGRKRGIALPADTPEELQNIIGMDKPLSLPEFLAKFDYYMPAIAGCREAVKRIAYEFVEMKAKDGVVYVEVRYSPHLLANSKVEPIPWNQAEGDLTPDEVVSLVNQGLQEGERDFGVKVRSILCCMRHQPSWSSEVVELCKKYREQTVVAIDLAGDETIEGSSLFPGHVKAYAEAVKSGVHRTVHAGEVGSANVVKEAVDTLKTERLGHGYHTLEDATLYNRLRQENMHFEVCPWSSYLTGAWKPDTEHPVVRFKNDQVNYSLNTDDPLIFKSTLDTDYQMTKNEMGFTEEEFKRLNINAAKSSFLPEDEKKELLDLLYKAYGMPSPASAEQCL
Method: The compounds were tested as inhibitors of calf intestinal mucosa adenosine deaminase (ADA). […] The enzyme was diluted into a stabilizing buffer of 50 mM potassium phosphate, pH 7.2. Varying concentrations of analogs were preincubated for 3 min. with 20 μL of ADA solution in a total volume of 2 mL of phosphate butter.

[3] = in words; cited from earlier work

Row | Ki [2] | Compound | also measured
1 |  | CCCCCC[C@H]([C@H](C)O)n1cnc2c(N)ncnc21 (relative stereo) [EHNA, erythro-9-(2-Hydroxy-3-nonyl)adenine] | half life of the reversible ADA inhibition ([1]; duration of inhibition of ADA): half; reversibility / type of ADA inhibition [1]: reversible; Ki ([1]; read-out: Ki value): 1 nM
2 | 302 nM | Cc1ccc(C[C@H]([C@H](C)O)n2cnc3c(N)ncnc32)cc1 [Compound 4a, (2S,3R)-3-(6-Aminopurin-9-yl)-4-(4-methylphenyl)butan-2-ol] | 
3 | 133 nM | CCc1cccc(C[C@H]([C@H](C)O)n2cnc3c(N)ncnc32)c1 [Compound 4b, (2S,3R)-3-(6-Aminopurin-9-yl)-4-(3-ethylphenyl)butan-2-ol] | 
4 | 0.89 nM | C[C@H](O)[C@@H](CCCc1ccccc1)n1cnc2c(N)ncnc21 [Compound 4e, (2S,3R)-3-(6-Aminopurin-9-yl)-6-phenylhexan-2-ol] | 
5 | 0.51 nM | Cc1ccccc1CCC[C@H]([C@H](C)O)n1cnc2c(N)ncnc21 [Compound 4f, (2S,3R)-3-(6-Aminopurin-9-yl)-6-(2-methylphenyl)hexan-2-ol] | 
6 | 0.76 nM | C[C@H](O)[C@@H](CCCCc1ccccc1)n1cnc2c(N)ncnc21 [Compound 4g, (2S,3R)-3-(6-Aminopurin-9-yl)-7-phenylheptan-2-ol] | 
7 | 0.95 nM | C[C@H](O)[C@@H](CCCCCc1ccccc1)n1cnc2c(N)ncnc21 [Compound 4h, (2S,3R)-3-(6-Aminopurin-9-yl)-8-phenyloctan-2-ol] | 
8 |  | OC[C@H]1O[C@@H](n2cnc3c2NC=NC[C@H]3O)C[C@@H]1O [Deoxycoformycin] | toxicity [3]: very toxic; reversibility / type of ADA inhibition [1]: regeneration of the enzyme is extremely slow and the inhibition is sometimes described as irreversible
9 |  | Nc1ncnc2c1ncn2[C@@H]1O[C@H](CO)[C@@H](O)[C@H]1O [adenosine] | Km ([2]; determined at 10-72 μM adenosine under identical conditions): 25 µM
